*1 amine or outer side, *2 acyl side, *3 side chain or, on linkers, in order; H or OH if unused. Where a SMILES comes first, the peptide text is derived from it. [ ]: non-standard residue; d: D form. The star is where a group is joined. X1 = O=C(C[C@H](N[*:1])c1ccc(O)cc1)[*:2]; dVal(3-OH) = CC(C)(O)[C@@H](N)C(=O)O; ΔIle(E) = CC/C(C)=C(/N)C(=O)O; Isovaleryl = CC(C)CC(=O)*; Agmatine = N=C(N)NCCCCN*; NMeA = CN[C@@H](C)C(=O)O; ΔVal = CC(C)=C(N)C(=O)O
Legend:
[1] = tested on: preformed S. aureus biofilm; assay: Dispersal effect on preformed S. aureus biofilm; assay type: cell-based, Staphylococcus aureus
Experimental: (§1) compounds (250–2 μg/mL) in CASO with 4% glucose broth. The inhibition of biofilm formation was evaluated by staining with 150 μL of 0.1% crystal violet (CV; Thermo Fisher) following previously established protocols. In the next step, the supernatant of the 96-well plate was discarded and the wells were rinsed once with PBS buffer. The remaining biofilms were stained at room temperature for 15 min, rinsed three times with PBS buffer, and finally dissolved in 150 μL ethanol (95%). The absorbance of the resulting solution at 530 nm was quantified using a plate reader (Synergy 2, BioTek). Methanol (2.5%) and microporenic acid A (MAA) (250–2 μg/mL) were used as negative and positive controls. Standard deviations (SD) of two repeats with duplicates were 10% or less. […]
(§2) Table S2: Selected azaphilones were tested against the formation of biofilm of S. aureus, P. aeruginosa as well as C. auris and dispersal effect on preformed biofilm of S. aureus compared to solvent control (= 0%), respectively. SDs are shown as ±SD.
(§3) Compounds Strains Concentrations [µg/mL] […]

[2] = tested on: Staphylococcus aureus (DSM 1104) biofilm; assay: Crystal violet biofilm inhibition assay, S. aureus; assay type: cell-based
Experimental: Selected azaphilones Rub C and W, Rut A and B were tested against the formation of biofilms in Staphylococcus aureus (DSM 1104). S. aureus DSM 1104 from a −20 °C stock was precultured in 25 mL CASO (casein-peptone soymeal-peptone) medium in a 250 mL flask at 37 °C with 100 rpm for 20 h. The OD600 of the culture solution was adjusted to 0.001 McFarland standard and incubated in 96-well microtiter plates (TPP tissue culture ref.no 92196, Switzerland) for 18 h at 37 °C with 150 μL of serially diluted test […]
as §1
μg/mL) were used as negative control and positive control, respectively. The assay was conducted for […]
as §2, §3

[3] = tested on: Pseudomonas aeruginosa (PA 14) DSM 19882 biofilm; assay: Crystal violet biofilm inhibition assay, P. aeruginosa; assay type: cell-based; conditions: assay conducted once
Experimental: Selected azaphilones Rub C and W, Rut A and B were tested against the formation of biofilms in Pseudomonas aeruginosa (PA 14) DSM 19882. Bacterial strain was precultured in 25 mL LB medium (Luria - Bertani Broth) with a 250 mL flask at 37 °C with shaking 100 rpm overnight. The turbidity of the baterial solution was measured and diluted to match the turbidity of a 0.1 McFarland standard in M63 medium, which is supplemented with magnesium sulfate, glucose and casamino acids as previously described. The compounds were added into 150 μL bacterial solution at the concentration (250–2 μg/mL) then the solution was added in U-bottom 96 well plate (Falcon ref.no 351177, Thermo Fisher Scientific). The plates were incubated at 37 °C at 150 rpm for 24 h and biofilms were established at the air liquid interface. The plates were rinsed once by using PBS buffer, the biofilms were stained by 150 μL 0.1% CV at room temperature for 15 min and then rinsed two times by using PBS buffer. The absorbance was quantified with the plate reader (Synergy 2, BioTek) at 550 nm using ethanol (95%). Methanol (2.5 %) and myxovalargin A (250 –2 μg/mL) were used as negative control and positive control, respectively. The assay was conducted for […]
as §2, §3

CC(C)=CCC/C(C)=C/CC/C(C)=C/CC/C(C)=C/CO[C@@H](C(=O)O)[C@H](CC(=O)O)C(=O)O [MAA, microporenic acid A, reference compound]
dispersal effect on preformed biofilm of S. aureus compared to solvent control (= 0%) ([1]; 15.6 µg/mL): 33 ±10% | dispersal effect on preformed biofilm of S. aureus compared to solvent control (= 0%) ([1]; 31.3 µg/mL): 54 ±6% | dispersal effect on preformed biofilm of S. aureus compared to solvent control (= 0%) ([1]; 62.5 µg/mL): 60 ±9% | dispersal effect on preformed biofilm of S. aureus compared to solvent control (= 0%) ([1]; 125 µg/mL): 65 ±7% | dispersal effect on preformed biofilm of S. aureus compared to solvent control (= 0%) ([1]; 250 µg/mL): 65 ±4% | inhibition of S. aureus biofilm formation compared to solvent control (= 0%) ([2]; 2 µg/mL): / ((/) no activity) | inhibition of S. aureus biofilm formation compared to solvent control (= 0%) ([2]; 3.9 µg/mL): 45 ±10% | inhibition of S. aureus biofilm formation compared to solvent control (= 0%) ([2]; 7.8 µg/mL): 77 ±10% | inhibition of S. aureus biofilm formation compared to solvent control (= 0%) ([2]; 15.6 µg/mL): 83 ±6% | inhibition of S. aureus biofilm formation compared to solvent control (= 0%) ([2]; 31.3 µg/mL): 86 ±4% | inhibition of S. aureus biofilm formation compared to solvent control (= 0%) ([2]; 62.5 µg/mL): 86 ±4% | inhibition of S. aureus biofilm formation compared to solvent control (= 0%) ([2]; 125 µg/mL): 85 ±5% | inhibition of S. aureus biofilm formation compared to solvent control (= 0%) ([2]; 250 µg/mL): 83 ±6%

CC/C(C)=C(/NC(=O)[C@H](NC(=O)[C@H](NC(=O)[C@@H](CCCN=C(N)N)NC(=O)C(NC(=O)[C@@H](NC(=O)C[C@H](NC(=O)[C@H](NC(=O)[C@H](NC(=O)[C@H](C)N(C)C(=O)[C@H](C)NC(=O)C(NC(=O)CC(C)C)=C(C)C)C(C)C)C(C)C)c1ccc(O)cc1)C(C)C)=C(C)C)C(C)C)C(C)C)C(=O)N[C@H](C)C(=O)N[C@@H](C(=O)NCCCCN=C(N)N)C(C)(C)O [Myxovalargin A, myxovalargin A, reference compound] (Isovaleryl-[ΔVal]A[NMeA][dV][dV][X1]V[ΔVal][dR][dV][dV][ΔIle(E)][dA][dVal(3-OH)]-Agmatine)
inhibition of P. aeruginosa biofilm formation compared to solvent control (= 0%) ([3]; 2 µg/mL): / ((/) no activity) | inhibition of P. aeruginosa biofilm formation compared to solvent control (= 0%) ([3]; 3.9 µg/mL): / ((/) no activity) | inhibition of P. aeruginosa biofilm formation compared to solvent control (= 0%) ([3]; 7.8 µg/mL): / ((/) no activity) | inhibition of P. aeruginosa biofilm formation compared to solvent control (= 0%) ([3]; 15.6 µg/mL): / ((/) no activity) | inhibition of P. aeruginosa biofilm formation compared to solvent control (= 0%) ([3]; 31.3 µg/mL): 61% | inhibition of P. aeruginosa biofilm formation compared to solvent control (= 0%) ([3]; 62.5 µg/mL): 59% | inhibition of P. aeruginosa biofilm formation compared to solvent control (= 0%) ([3]; 125 µg/mL): 65% | inhibition of P. aeruginosa biofilm formation compared to solvent control (= 0%) ([3]; 250 µg/mL): 55%
